Non-standard residues stand in square brackets, D forms with d. Residues, ends and D or L forms follow the SMILES beside them. *: point of attachment. Acetyl(thymin-1-yl) = Cc1cn(CC(=O)*)c(=O)[nH]c1=O; Sar = CNCC(=O)O
How the values were obtained:
Aβ42 [1] = target: T1, Aβ42 (Homo sapiens, UniProt P05067); assay: ThT fluorescence inhibition assay of Aβ42 fibrillization; type: biochemical; conditions: for growth phase of Aβ42 fibrillization, time-dependent ThT assay / inhibition efficiency, time-dependent ThT assay: 1:2, 37°C, n = 3; for growth phase of Aβ42 fibrillization, time-dependent ThT assay: normalized fluorescence at 485 nm
T1 construct: Aβ42 peptide (0.25 mg) (Calbiochem, Merck) was dissolved in hexafluoro-2-propanol; purchased Calbiochem, Merck
T1 sequence (P05067 672-713 limits assumed): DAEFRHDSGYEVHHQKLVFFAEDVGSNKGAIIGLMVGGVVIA
Protocol: (§1) ThT assay has been widely used to monitor the transformation of Aβ42 monomers to fibrillar aggregates. We employed ThT assay to evaluate the ability of our peptidomimetic candidates to either prevent fibril assembly (inhibition) or to break down preformed fibrils of Aβ42 (dissolution). For the inhibition assay all the peptidomimetics (P2, P3, P4 and P5) along with control peptide P1 were added at 0 h of the experiment, whereas for the aggregates reversal (dissolution) assay they were added to Aβ42 fibrillar aggregates grown for 2 days. Once they had been incubated together, Aβ42/inhibitors were analyzed using ThT by measuring the fluorescence changes. First, we performed concentration-dependent experiments where different ratios of P1, P2, P3, P4 and P5 were incubated with fixed concentrations of Aβ42 (20 μM) and its aggregates to study their effect on both inhibition and reversal assay, respectively. Experiments were performed at stoichiometric ratios (Aβ42/inhibitor) of 1:0.2, 1:1, and 1:2 with the fixed concentration of Aβ42 of 20 μM. […] However, the efficiencies of P4 and P5 were only marginally better in inhibition assay compared to reversal assay with a difference of about 15%.
(§2) Fluorescence spectral measurements were carried out using Perkin Elmer Model LS 55 fluorescence spectrophotometer. […] A ThT concentration of 5–10 µM was used for amyloid fibrillization and dissolution assay based on the Aβ42 fibrillar concentration.
(§3) Prior to the experiment, P1, P2, P3, P4 and P5 were dissolved in HFIP and were evaporated under a stream of dry nitrogen. The dried samples were re-suspended in 10 mM PBS buffer at pH 7.4. An aliquot of Aβ42 peptide was then added to the solution with or without one of the inhibitor P1, P2, P3, P4 and P5. The mixtures were vortexed for approximately 30 s and then incubated at 37°C for 2–3 days without shaking. The final concentration of Aβ42 in the mixture was 20 μΜ. For a dissolution experiment, Aβ42 was incubated alone for 2 days to allow fibrils to form. An aliquot of the formed fibrils in 10 mM PBS buffer was then added to the inhibitor peptidomimetics. The amount of fibrils remaining intact was assayed using that fluorescence, CD measurements and transmission electron microscopy as described below.

[2] = target: T2, Aβ42 fibrillar aggregates (Homo sapiens, UniProt P05067); assay: ThT fluorescence reversal (dissolution) assay of preformed Aβ42 fibrillar aggregates; type: biochemical; conditions: n = 3; for dissolution efficiency, fibril reversal assay (ThT): Aβ42 fibrillar aggregates grown for 2 days, 20 μM, 1:2 stoichiometry, day 6, 37°C; for dissolution efficiency, time-dependent reversal ThT assay: Aβ42 aggregates 20 μM, 1:2, 37°C
T2 construct: Aβ42 peptide (0.25 mg) (Calbiochem, Merck) was dissolved in hexafluoro-2-propanol; purchased Calbiochem, Merck
T2 sequence (P05067 672-713 limits assumed): as above
Protocol: as §1
Aβ42 peptide (0.25 mg) (Calbiochem, Merck) was dissolved in hexafluoro-2-propanol (HFIP, 0.2 mL) and incubated at room temperature for 1 h. HFIP was then removed by the flow of nitrogen and further dried under vacuum. HFIP-treated Aβ42 was then dissolved in 10 mM PBS buffer to a concentration of 200 μM at pH 7.4. The solution was incubated at 37°C for 48 h with constant shaking for fibril formation. The formation of Aβ42 fibrillar aggregates was confirmed by ThT fluorescence, CD measurements and electron microscopy. For oligomers, HFIP-treated Aβ42 dissolved in 10 mM PBS buffer and incubated at 4°C for 24 h[44].
as §2, §3

Serum stability assay = type: in vitro ADME; conditions: 37°C; for half-life at 50 μM: n = 3; for serum half-life compared to P1: human blood serum, 50 μM; for remaining at 24 h, 50 μM: n = 3, read-out: peptide intact after 24 h in serum
Protocol: The impact of N-terminal modification (P2 and P3) and Sr (N-methylglycine) substitution (P4 and P5) in P1 were investigated for their proteolytic stability towards blood plasma proteases. The assay involved the incubation of peptides (50 μM) with blood serum at 37°C for a period of 24 h and assessing the amount of intact peptides at different time points (0, 3, 6, 12 and 24 h) using RP-HPLC. […] Remarkably, P4 and P5 were very stable towards blood plasma proteases in comparison to the other peptides (P1, P2 and P3). […] Proteolytic enzymes generally recognize the specific amide bond between the natural amino acids and cleave them. […] On the other hand, P4 and P5 with an unnatural amino acid (Sr: N-methylglycine) in alternate positions were not recognized by the blood plasma proteases, resulting in their high blood plasma protease stability.
Figure 6 Serum stability of inhibitors. Inhibitors (50 μM) (P1-P5)were incubated in human blood serum (HBS) and were analyzed at different time points over a duration of 24 h to determine the percentage of intact inhibitor. […] Each experiment was repeated three times (n = 3). Error bars represent the standard deviation (SD) of the […] measurement.
Human blood serum (HBS) was used to determine serum stability of the inhibitors. The HBS was centrifuged to remove the lipid component, and the supernatant was incubated at 37°C. 50 Μm of each inhibitor (P1, P2, P3, P4 and P5) was incubated in HBS and then 40 μL triplicate aliquots were removed at 0, 1, 3, 6, 10, 16, and 24 h. Each serum sample was quenched with 40 μL of 6 M urea and incubated at 4°C for 10 min. Then, each serum sample was quenched with 40 μL of trichloroacetic acid (20%) and incubated for another 10 min at 4°C to precipitate the serum proteins. The samples were centrifuged for 10 min, and […] of the supernatant was analyzed on RP-HPLC using a linear gradient of solvent B (0.3 mL/min flow rate). The control samples containing equivalent amounts of inhibitors in PBS buffer were subjected to the same treatment procedure. The percentage recovery of inhibitors was detected by integration at 254 nm[45].

trypsin = assay: Protease stability assay, trypsin; type: in vitro ADME; conditions: 100 mM NH4HCO3 buffer pH 8, 50 μM, 37°C; for stability towards trypsin: 24 h, RP-HPLC; for remaining at 24 h, 50 μM: RP-HPLC at 254 nm, triplicates, read-out: peptidomimetic intact after 24 h with trypsin
Protocol: (§4) Enzymes trypsin and pepsin are well-known to cleave the C-terminal of lysine and amide bond involving aromatic amino acids, respectively. Peptides were incubated with both the enzymes at 37°C for 24 h, and the amount of the residual intact peptide was monitored in each case at different time points (0, 3, 6, 12 and 24 h) using RP-HPLC. […] Overall, the stability assays with blood plasma and proteolytic enzymes led to similar conclusions and confirmed the stability, order P5>P4≫P3≈P2>P1.
(§5) Preliminary stability assays were performed using the enzymes pepsin and trypsin. For all assays, peptides were incubated with the enzyme at 37°C for 24 h. All digestion assay data were analyzed by RP-HPLC. Trypsin and pepsin stocks were prepared in 100 mM ammonium bicarbonate (NH4HCO3) buffer (pH 8) and 100 mM formic acid buffer (pH 2), respectively. All the peptides/peptidomimetics (P1, P2, P3, P4 and P5) were incubated with trypsin and pepsin enzymes in 100 mM NH4HCO3 buffer (pH 8) and formic acid buffer (pH 2), respectively, at 37°C. The trypsin reactions were halted with 0.05% formic acid, and the pepsin reactions were halted with 100 mM NH4HCO3. Then the samples were analyzed by RP-HPLC using a linear gradient of solvent B (0.3 mL/min flow rate); similar data points were collected at various time points between 0 and 24 h (1 h, 3 h, 6 h, 12 h and 24 h) during incubation and analyzed in triplicates. The percentages of recovered peptide/peptidomimetics were detected by integration at 254 nm[46].
(§6) Figure S6. Stability towards protease enzymes pepsin and trypsin. P1, P2, P3, P4 and P5 ([…]) were incubated in with enzymes pepsin a and trypsin b in 100 mM formic acid buffer (pH 2) and 100 mM NH4HCO3 buffer (pH 8) respectively. Percentage of intact peptide in each case was monitored at different time points for a duration of 24 h. P1, P2 and P3 degraded with time, […]
(§7) (1 picture or pasted object on this page, not shown here)

pepsin = assay: Protease stability assay, pepsin; type: in vitro ADME; conditions: 100 mM formic acid buffer pH 2, 50 μM, 37°C; for stability towards pepsin: 24 h, RP-HPLC; for remaining at 24 h, 50 μM: RP-HPLC at 254 nm, triplicates, read-out: peptidomimetic intact after 24 h with pepsin
Protocol: as §4, §5, §6, §7

Aβ42 [3] = target: T1, Aβ42; assay: CD measurement, inhibition assay (β-sheet band at 218 nm); type: biochemical; conditions: read-out: reduction in CD intensity at 218 nm (β-sheet content), inhibition assay
Source text: (§8) To further validate our results, we performed CD studies. Aβ42 aggregates are predominantly made of β-sheet assembly, which can be assessed by CD measurements. […] In this assay, we monitored the intensity of negative CD band centered at 218 nm, characteristic of a β-sheet structure and a decrease in its intensity was correlated with a reduction in the toxic Aβ42 aggregates (supplementary Fig. S2). In these CD measurements, samples similar to ThT fluorescence assays were used to allow for direct comparison between the two experiments. In the case of inhibition assay, Aβ42 monomers were incubated with inhibitor candidates for 4 days at 37°C and then CD measurements were performed to evaluate the inhibition efficiency. […] In the reversal assay, Aβ42 aggregates were incubated with the inhibitor candidates for six days at 37°C and then, CD measurements were performed. CD data was in excellent agreement with the dissolution efficiency obtained in reversal assay experiments monitored by the ThT assay (Fig. 2). […] Overall, inhibition and dissolution efficiencies obtained in the ThT fluorescence assay and CD measurements were in good agreement.
(§9) The circular dichroic (CD) spectra were recorded using a Jasco J-815 spectrometer under nitrogen atmosphere. Peptides were dissolved in 10 mM PBS buffer at pH 7.4 at concentrations of 20 µM. A 10 mm path length was used for the measurements. Four to five scans were acquired from 200 to 300 nm.
as §3

Aβ42 aggregates = target: T3, Aβ42 aggregates (Homo sapiens, UniProt P05067); assay: CD measurement, reversal assay (β-sheet band at 218 nm); type: biochemical; conditions: Aβ42 aggregates 20 μM, inhibitor 40 μM, six days at 37°C
T3 construct: Aβ42 peptide (0.25 mg) (Calbiochem, Merck) was dissolved in hexafluoro-2-propanol; purchased Calbiochem, Merck
T3 sequence (P05067 672-713 limits assumed): as above
Source text: as §8, §9, §3

[4] = Aβ42 20 μM, Aβ42:inhibitor 1:2 (40 μM), inhibitor added at 0 h, four days at 37°C, 10 mM PBS pH 7.4, n = 3, read-out: inhibition efficiency (reduction in the fluorescence intensity of ThT)
[5] = human blood serum (centrifuged to remove lipid), 24 h, RP-HPLC at 254 nm
[6] = Aβ42 20 μM, inhibitor 40 μM, 4 days at 37°C, vs untreated Aβ42

Row | SMILES | inhibition at 40 µM (Aβ42 [1]; [4]) [%] | dissolution efficiency, fibril reversal assay (ThT) [2] [%] | half-life at 50 μM (Serum stability assay; [5]) [h] | metabolised at 24 h, 50 μM (Serum stability assay; human blood serum (centrifuged to remove lipid), 24 h, RP-HPLC at 254 nm, n = 3, read-out: peptide degraded at 24 h in serum) [%] | stability towards trypsin (trypsin) | stability towards pepsin (pepsin) | growth phase of Aβ42 fibrillization, time-dependent ThT assay (Aβ42 [1]; Aβ42 20 μM) [%] | dissolution efficiency, time-dependent reversal ThT assay [2] [%] | inhibition at 40 µM (Aβ42 [3]; [6]) [%] | dissolution efficiency by CD, reversal assay (Aβ42 aggregates) [%] | serum half-life compared to P1 (Serum stability assay) [times] | inhibition at 40 µM (Aβ42 [1]; pH 7.4, read-out: inhibition efficiency (reduction in the fluorescence intensity of ThT)) [%] | inhibition at 40 µM (Aβ42 [3]) [%] | inhibition efficiency, time-dependent ThT assay (Aβ42 [1]; Aβ42 20 μM) [%] | remaining at 24 h, 50 μM (Serum stability assay; [5]) [%] | remaining at 24 h, 50 μM (trypsin) [%] | remaining at 24 h, 50 μM (pepsin) [%]
1 | CC(C)C[C@H](NC(=O)[C@@H](N)CCCCN)C(=O)N[C@H](C(=O)N[C@@H](Cc1ccccc1)C(=O)N[C@@H](Cc1ccccc1)C(N)=O)C(C)C [P1, reference compound] | 20 | 20 | ~3 | 80 | less stable | less stable |  |  |  |  |  |  |  |  |  |  | 
2 | Cc1cn(CC(=O)N[C@@H](CCCCN)C(=O)N[C@@H](CC(C)C)C(=O)N[C@H](C(=O)N[C@@H](Cc2ccccc2)C(=O)N[C@@H](Cc2ccccc2)C(N)=O)C(C)C)c(=O)[nH]c1=O [P2] | 55 | 45 | ~10 |  | less stable | less stable | < 60 | 35 | > 50 | 40 | 3 |  |  |  |  |  | 
3 | CC(C)C[C@H](NC(=O)[C@H](CCCCN)NC(=O)CC1C(=O)NC(=O)NC1=O)C(=O)N[C@H](C(=O)N[C@@H](Cc1ccccc1)C(=O)N[C@@H](Cc1ccccc1)C(N)=O)C(C)C [P3] |  | 34 | ~10 |  | less stable | less stable | < 60 | 25 |  | 25 | 3 | 40 | ~30 |  |  |  | 
4 | Cc1cn(CC(=O)N(C)CC(=O)N[C@@H](CC(C)C)C(=O)N(C)CC(=O)N[C@@H](Cc2ccccc2)C(=O)N(C)CC(=O)N[C@@H](C)C(N)=O)c(=O)[nH]c1=O [P4] ({Acetyl(thymin-1-yl)}-[Sar]L[Sar]F[Sar]A-NH2) | ≤ 95 | 80 |  |  |  |  |  | 68 | > 80 | > 75 |  |  |  | > 90 | > 90 | > 90 | > 90
5 | Cc1cn(CC(=O)N[C@@H](CCCCN)C(=O)N(C)CC(=O)N[C@H](C(=O)N(C)CC(=O)N[C@@H](Cc2ccccc2)C(=O)N(C)CC(N)=O)C(C)C)c(=O)[nH]c1=O [P5] ({Acetyl(thymin-1-yl)}-K[Sar]V[Sar]F[Sar]-NH2) | ≤ 95 | 80 |  |  |  |  |  | 75 | > 80 | > 75 |  |  |  | > 90 | > 90 | > 90 | > 90

From PMC4311240, “Rationally Designed Peptidomimetic Modulators of Aβ Toxicity in Alzheimer's Disease” (Scientific Reports, 2015)
